Results taken from US5288709A, “Erythromycin derivatives” (priority 1991, dated 1994).
In brackets after ≈: the same amount, converted by molar mass. Like-named read-outs stand apart in the source and are kept apart here.

How the values were obtained:
Assay in all cases: In-vitro antimicrobial activity primary screen (agar dilution MIC)
Format in all cases: cell-based
[1] = system: Staphylococcus aureus CMX 503A; conditions: Staphylococcus aureus, CMX503A, 24 h, BHI agar, 20-24 h, read-out: MIC
Experimental: (§1) The antimicrobial spectra of several of the compounds of the present invention were tested as described below.
(§2) Twelve petri dishes containing successive aqueous dilutions of the test compounds, mixed with 10 mL of sterilized Brain Heart Infusion (BHI) agar (Difco 0418-01-5), were prepared. Each plate was inoculated with 1:100 (or 1:10 for slow growing strains (primarily Micrococcus and Streptococcus) dilutions of up to 32 different microorganisms, using a Steers replicator block. The inoculated plates were incubated at 35 37° C. for 20-24 hours. In addition, a control plate, using BHI agar containing no test compound, was prepared and incubated at the beginning and the end of each test.
(§3) An additional plate containing a compound having known susceptibility patterns for the organisms being tested and belonging to the same antibiotic class as the test compounds was also prepared and incubated as a further control, as well as to provide test-to test comparability. Erythromycin A was used for this purpose.
(§4) After incubation, each plate was read. The MIC (minimum inhibitory concentration) is defined as the lowest concentration of test compound yielding no growth, a slight haze, or sparsely isolated colonies on the inoculum spot as compared to the growth control containing no test compound.

[2] = system: Staphylococcus aureus CMX 686B; conditions: CMX686B, BHI agar, 20-24 h, read-out: MIC
Experimental: as §1, §2, §3, §4

[3] = system: Staphylococcus aureus CMX 553; conditions: Staphylococcus aureus, CMX553, 24 h, BHI agar, 20-24 h, read-out: MIC
Experimental: as §1, §2, §3, §4

Escherichia coli SS = conditions: Escherichia coli, 24 h, BHI agar, 20-24 h
Experimental: as §1, §2
(§5) An additional plate containing a compound having known susceptibility patterns for the organisms being tested and belonging to the same antibiotic class as the test compounds was also prepared and incubated as a further control, as well as to provide test-to test comparability.
as §4

Escherichia coli H560 = conditions: Escherichia coli H560, BHI agar, 20-24 h
Experimental: as §1, §2, §5, §4

[4] = system: Streptococcus pyrogenes 2548 INDUC; conditions: Streptococcus, 2548INDUC, 24 h, BHI agar, 20-24 h
Experimental: as §1, §2, §5, §4

Escherichia coli JUHL = conditions: Escherichia coli JUHL, BHI agar, 20-24 h
Experimental: as §1, §2, §5, §4

[5] = system: Enterococcus faecium ATCC 8043
Experimental: as §1, §2, §5, §4

[6] = system: Klebsiella pneumoniae ATCC 8045
Experimental: as §1, §2, §5, §4

[7] = system: Streptococcus bovis A5169; conditions: Streptococcus equinus, BHI agar, 20-24 h, read-out: MIC
Experimental: as §1, §2, §5, §4

[8] = system: Micrococcus luteus ATCC 9341; conditions: 20-24 h
Experimental: as §1, §2, §5, §4

[9] = system: Streptococcus pyrogenes EES61; conditions: BHI agar, 20-24 h
Experimental: as §1, §2, §5, §4

Pseudomonas cepacia 2961 = conditions: BHI agar, 20-24 h
Experimental: as §1, §2, §5, §4

[10] = system: Enterobacter aerogenes ATCC 13048; conditions: Klebsiella aerogenes
Experimental: as §1, §2, §5, §4

[11] = system: Staphylococcus epidermidis 3519; conditions: Staphylococcus epidermidis, 3519, 24 h, BHI agar, 20-24 h
Experimental: as §1, §2, §5, §4

Acinetobacter SP CMX 669 = conditions: Acinetobacter SP CMX 669, BHI agar, 20-24 h
Experimental: as §1, §2, §5, §4

Staphylococcus aureus 45 = conditions: BHI agar, 20-24 h
Experimental: as §1, §2, §5, §4

[12] = system: Micrococcus luteus ATCC 4698; conditions: 20-24 h
Experimental: as §1, §2, §5, §4

[13] = system: Pseudomonas aeruginosa K799/61; conditions: Pseudomonas aeruginosa, K799/61, 24 h
Experimental: as §1, §2, §5, §4

[14] = system: Staphylococcus aureus 45 RAR2; conditions: Staphylococcus aureus, 45RAR2, 24 h, BHI agar, 20-24 h
Experimental: as §1, §2, §5, §4

Escherichia coli DC-2 = conditions: Escherichia coli DC-2, BHI agar, 20-24 h
Experimental: as §1, §2, §5, §4

[15] = system: Providencia stuartii CMX 640
Experimental: as §1, §2, §5, §4

[16] = system: Staphylococcus aureus ATCC 6538P; conditions: Staphylococcus aureus, ATCC6538P, 24 h, BHI agar, 20-24 h
Experimental: as §1, §2, §5, §4

[17] = system: Staphylococcus aureus A5177; conditions: Staphylococcus aureus, A5177, 24 h, Staphylococcus aureus A5177; BHI agar, 20-24 h
Experimental: as §1, §2, §5, §4

[18] = system: Pseudomonas aeruginosa A5007
Experimental: as §1, §2, §5, §4

[19] = system: Pseudomonas aeruginosa K799/WT
Experimental: as §1, §2, §5, §4

[20] = system: Streptococcus agalactiae CMX 508; conditions: 20-24 h
Experimental: as §1, §2, §5, §4

[21] = system: Pseudomonas aeruginosa BMH10; conditions: BHI agar, 20-24 h
Experimental: as §1, §2, §5, §4

SMILES: CC[C@H]1OC(=O)[C@H](C)[C@@H](O[C@H]2C[C@@](C)(OC)[C@@H](N)[C@H](C)O2)[C@H](C)[C@@H](O[C@@H]2O[C@H](C)C[C@H](N(C)C)[C@H]2O)[C@](C)(O)C[C@@H](C)[C@@H]2O[C@@]1(C)C(=O)[C@H]2C [Example 14, (4"S,9S)-4"-Amino-9-deoxo-4",11,12-trideoxy-9,12-epoxy-11-oxoerythromycin A]
- MIC [1]: 0.39 µg/mL (≈ 0.546 µM)
- MIC [2]: 0.39 µg/mL (≈ 0.546 µM)
- MIC [3]: 0.2 µg/mL (≈ 0.28 µM)
- MIC (Escherichia coli SS): 0.2 µg/mL (≈ 0.28 µM)
- MIC (Escherichia coli H560; Escherichia coli, H560, 24 h): 12.5 µg/mL (≈ 17.5 µM)
- MIC [4]: 3.1 µg/mL (≈ 4.34 µM)
- MIC (Escherichia coli JUHL; Escherichia coli, 24 h): 25 µg/mL (≈ 35 µM)
- MIC ([5]; Enterococcus faecium, ATCC8043, 24 h): 0.1 µg/mL (≈ 0.14 µM)
- MIC ([6]; Klebsiella pneumoniae, ATCC8045, 24 h): 100 µg/mL (≈ 140 µM)
- MIC [7]: 0.1 µg/mL (≈ 0.14 µM)
- MIC ([8]; ATCC9341, BHI agar, read-out: MIC): 0.05 µg/mL (≈ 0.0699 µM)
- MIC ([9]; Streptococcus, EES61, 24 h): 0.05 µg/mL (≈ 0.0699 µM)
- MIC (Pseudomonas cepacia 2961; Burkholderia cepacia, 2961, 24 h): > 100 µg/mL
- MIC ([10]; ATCC13048, 24 h): > 100 µg/mL
- MIC [11]: 0.39 µg/mL (≈ 0.546 µM)
- MIC (Acinetobacter SP CMX 669; Acinetobacter, SPCMX669, 24 h): 12.5 µg/mL (≈ 17.5 µM)
- MIC (Staphylococcus aureus 45; read-out: MIC): 0.39 µg/mL (≈ 0.546 µM)
- MIC ([12]; Micrococcus luteus, ATCC4698, 24 h, BHI agar): 0.1 µg/mL (≈ 0.14 µM)
- MIC ([13]; Pseudomonas aeruginosa K799/61, BHI agar, 20-24 h): 1.56 µg/mL (≈ 2.18 µM)
- MIC [14]: 0.39 µg/mL (≈ 0.546 µM)
- MIC (Escherichia coli DC-2; Escherichia coli, DC2, 24 h): 25 µg/mL (≈ 35 µM)
- MIC ([15]; Providencia stuartii, CMX640, 24 h): > 100 µg/mL
- MIC [16]: 0.39 µg/mL (≈ 0.546 µM)
- MIC [17]: 3.1 µg/mL (≈ 4.34 µM)
- MIC ([18]; Pseudomonas aeruginosa, A5007, 24 h): > 100 µg/mL
- MIC ([19]; Pseudomonas aeruginosa, K799/WT, 24 h): > 100 µg/mL
- MIC ([20]; Streptococcus agalactiae, CMX508, 24 h, BHI agar): 0.05 µg/mL (≈ 0.0699 µM)
- MIC ([21]; Pseudomonas aeruginosa, BMH10, 24 h): 50 µg/mL (≈ 69.9 µM)

SMILES: CC[C@H]1OC(=O)[C@H](C)[C@@H](O[C@H]2C[C@@](C)(OC)[C@@H](NS(C)(=O)=O)[C@H](C)O2)[C@H](C)[C@@H](O[C@@H]2O[C@H](C)C[C@H](N(C)C)[C@H]2O)[C@](C)(O)C[C@@H](C)[C@@H]2O[C@@]1(C)C(=O)[C@H]2C [Example 16, (4"S,9S)-9-Deoxo-4",11,12-trideoxy-9,12-epoxy-4"-(methylsulfonyl)amino-11-oxerythromycin A]
- MIC [1]: 0.39 µg/mL (≈ 0.492 µM)
- MIC [2]: 0.39 µg/mL (≈ 0.492 µM)
- MIC [3]: 0.39 µg/mL (≈ 0.492 µM)
- MIC (Escherichia coli SS): 0.39 µg/mL (≈ 0.492 µM)
- MIC (Escherichia coli H560; read-out: MIC): > 100 µg/mL
- MIC [4]: 3.1 µg/mL (≈ 3.91 µM)
- MIC (Escherichia coli JUHL; read-out: MIC): > 100 µg/mL
- MIC ([5]; ATCC8043, Enterococcus faecium ATCC 8043, BHI agar, 20-24 h, read-out: MIC): 0.05 µg/mL (≈ 0.063 µM)
- MIC ([6]; ATCC8045, Klebsiella pneumoniae ATCC 8045, BHI agar, 20-24 h, read-out: MIC): > 100 µg/mL
- MIC [7]: < 0.005 µg/mL
- MIC ([8]; Micrococcus luteus, ATCC9341, 24 h, BHI agar): 0.02 µg/mL (≈ 0.0252 µM)
- MIC ([9]; read-out: MIC): < 0.005 µg/mL
- MIC (Pseudomonas cepacia 2961; Burkholderia cepacia, read-out: MIC): > 100 µg/mL
- MIC ([10]; ATCC13048, Enterobacter aerogenes ATCC 13048, BHI agar, 20-24 h, read-out: MIC): > 100 µg/mL
- MIC [11]: 0.39 µg/mL (≈ 0.492 µM)
- MIC (Acinetobacter SP CMX 669; SPCMX669, read-out: MIC): 50 µg/mL (≈ 63 µM)
- MIC (Staphylococcus aureus 45; Staphylococcus aureus, 45, 24 h): 0.39 µg/mL (≈ 0.492 µM)
- MIC ([12]; ATCC4698, BHI agar, read-out: MIC): 0.05 µg/mL (≈ 0.063 µM)
- MIC [13]: 3.1 µg/mL (≈ 3.91 µM)
- MIC [14]: 0.78 µg/mL (≈ 0.984 µM)
- MIC (Escherichia coli DC-2; DC2, read-out: MIC): > 100 µg/mL
- MIC ([15]; CMX640, Providencia stuartii CMX 640, BHI agar, 20-24 h, read-out: MIC): > 100 µg/mL
- MIC [16]: 0.39 µg/mL (≈ 0.492 µM)
- MIC [17]: 0.39 µg/mL (≈ 0.492 µM)
- MIC ([18]; Pseudomonas aeruginosa A5007, BHI agar, 20-24 h, read-out: MIC): > 100 µg/mL
- MIC ([19]; Pseudomonas aeruginosa K799/WT, BHI agar, 20-24 h, read-out: MIC): 100 µg/mL (≈ 126 µM)
- MIC ([20]; CMX508, BHI agar, read-out: MIC): 0.02 µg/mL (≈ 0.0252 µM)
- MIC ([21]; read-out: MIC): 100 µg/mL (≈ 126 µM)
